# Laboratory results reported in US20140357706A1, “Stearate Compounds” (THE UAB RESEARCH FOUNDATION, priority 2011, published 2014).
# What was measured:
# [1] = tested on: differentiated 3T3L1 adipocytes; test: Necrosis and apoptosis of differentiated 3T3L1 adipocytes (trypan blue, LDH, flow cytometry); assay type: cell-based, mouse; conditions: 50 μM
# Protocol: 3T3L1 mouse fibroblast cells (ATCC, CL-173™) were maintained according to the manufacture's protocol, in Dulbecco's modified eagle's medium (DMEM) containing 10% Fetal Bovine Serum and antibiotics (M1 medium). Adipocyte differentiation was performed according to standard procedures (42). Briefly, the 3T3L1 fibroblasts were seeded at 30% confluence and allowed to grow to near 100% confluence. On the day after reaching maximum confluence, conversion was induced by replacing the M1 medium with M1 medium containing insulin (5 μg/ml), dexamethasone (0.25 μM), and 3-isobutyl-1-methyl-xanthine (0.5 mM). After 2 days, the cells were changed to M1 medium with insulin (5 μg/ml) for an additional 2 days. Thereafter, the cells were maintained in M1 medium without additives for 2 days.
# (§1) 50 μM of stearate, oleate or linoleate was used to treat 3T3L1 cells as this concentration is centered within the normal range for non-esterified stearate in the plasma of humans. Stearate, oleate, or linoleate was loaded onto fatty acid free BSA according to the method reported by Spector and Hoak (Spector and Hoak, 1969). Briefly, stearate (0.5 g) was dissolved in chloroform (100 mL) and mixed well with 10 g diatomaceous earth in a 1 liter flask. The mixture was stirred and dried under nitrogen until powder. Fatty acid free BSA (1 g) was dissolved in 100 mL with DMEM without phenol red and mixed with 3 g of the stearate/diatomaceous earth mixture and stirred for 30 minutes. The stearate/BSA solution was filtered through a 0.45 μm filter, and adjusted to pH 7.4. The concentration of stearate in the solution was detected by use of a NEFA C kit. Oleic and linoleate were loaded in the same way. […] Before the treatment with fatty acid, 3T3L1 preadipocytes were grown to 100%, and were starved in 2% FBS medium for 24 hours.
# (§2) After treatment, 3T3L1 cells were harvested, washed with cold PBS, and then resuspended in 100 μl annexin-binding buffer (50 mM HEPES, 700 mM NaCl, 12.5 mM CaCl2, pH 7.4). Cell density was determined, and the cells were diluted to 10^6 cells. Then 5μL of Alex Fluo 488 annexin V and 1 μL propidium iodide (PI) were added. Cells were gently oscillated and incubated for 15 min at room temperature. After adding 400 μL of binding buffer to each tube, cells were kept on ice and analyzed by flow cytometry within 1 hour. Cells that stained positive for Alex Fluo 488 annexin V and negative for PI were considered to be apoptotic. Cells that stained positive for both Alex Fluo 488 annexin V and PI were considered either in the end stage of apoptosis, or necrosis. Cells that stained negative for both Alex Fluo 488 annexin V and PI were considered alive and not undergoing measurable apoptosis. A BD LSR II flow cytometer from Becton Dickinson was used in all flow experiments and the data were analyzed with BD FACSDiva™ software V.6.1.3.
# (§3) Lactate dehydrogenase (LDH) release was measured using a cytotoxicity detection kit, according to the manufacture's protocol. After 3T3L1 cells were treated, 1 ml of cell culture medium was removed and centrifuged. The supernatant was retained for assaying. For determinations, 100 μl of LDH assay reagent was added to 100 μl of supernatant and incubated for 30 min at room temperature in the dark. Absorbance was measured at 490 nm. Background release from culture medium alone was subtracted before reporting. Maximum release was measured after adding 2% Triton X-100 to untreated cells.
# (§4) After treatment, 3T3L1 cells were harvested and stained with 0.4% trypan blue solution. Cells in the four corners of the grid were counted under a conventional bright field binocular microscope.
# 3T3L1 preadipocytes = test: Cell death and apoptosis of 3T3L1 preadipocytes (trypan blue, LDH, flow cytometry); assay type: cell-based, mouse; conditions: 50 μM, vs control
# Protocol: as §1, §2, §3, §4
# [2] = tested on: p21^CIP1/WAF1, p27^KIP1, pCdk2; test: Immunoblot of p21CIP1/WAF1, p27KIP1 and phosphorylated Cdk2 in Hs578T cells; assay type: cell-based, human; conditions: 50 μM stearate, Hs578T
# Protocol: The concentration of stearate used to treat the Hs578T cells was 50 μM. When EGF was used, the concentration was 1 nM EGF. Before the treatment with stearate or EGF, cells were first starved for 24-48 hours. Stearate was loaded onto fatty acid-free bovine serum albumin (BSA) according to the method reported by Spector et al. (13); briefly, stearate (0.5 g) was dissolved in chloroform (100 ml) and mixed well with 10 g diatomaceous earth in a 1 liter flask. The mixture was stirred and dried under nitrogen until powder. BSA is a physiological carrier of fatty acids and was used to avoid the introduction of organic solvents to solutions coming into contact with cells. Fatty acid-free BSA (1 g) was dissolved in 100 ml with Dulbecco's modified Eagle's medium without phenol red and mixed with 3 g of the stearate/diatomaceous earth mixture with stirring for 45 min. The stearate/BSA solution was filtered through a 0.45 μm filter, and adjusted to pH 7.4. The concentration of stearate in the solution was detected with the NEFA C Kit from Wako Chemicals GmbH (Neuss, Germany). All experimental data on Hs578T cells were controlled using fatty acid-free BSA control solutions that were put through the same preparatory procedure described for the stearate/BSA solution except for the fact that no fatty acid was added.
# Cells were treated as described above, and lysed with lysis buffer. The supernatants of the lysates or the immunoprecipitates were loaded with Laemmli sample buffer on 10% sodium dodecyl sulfate-polyacrylamide gel electrophoresis gels after boiling at 100° C. for 5 min. Proteins were then transferred to a polyvinylidene difluoride membrane. The membranes were blocked overnight at 4° C. with blocking buffer containing 5% non-fat dried milk powder in Tris-buffered saline-T (25 mM Tris, 140 mM NaCl, 2.7 mM KCl, 0.05% Tween-20, pH 8.0), incubated with primary antibody in blocking buffer at room temperature for 1 hour and incubated with antirabbit or antimouse antibodies labeled with horseradish peroxidase (1:5000) in blocking buffer under the same conditions, and then washed three times for 10 min in Tris-buffered saline-T. The polyvinylidene difluoride membranes were washed and developed using enhanced chemiluminescence reagents.
# MCF10A = conditions: ref (27); cited from earlier work
structure (smiles),measurement,setting,value
"CCCCCCCCCCCCCCCCCC(=O)O [stearate, Stearic acid]",Cytotoxicity (lactate dehydrogenase in medium),[1],no significant changes
same,Percentage of apoptotic cells (flow cytometry),[1],no significant changes
same,Percentage of dead cells (flow cytometry),[1],no significant changes
same,Percentage of dead cells (trypan blue),[1],no significant changes
same,Percentage of dead cells (trypan blue),3T3L1 preadipocytes; 48 hour treatment,significantly increased
same,Dead cells (flow cytometry),3T3L1 preadipocytes; 48 hours,increase
same,Cytotoxicity (lactate dehydrogenase),3T3L1 preadipocytes; after 24 hours,significantly increased
same,Apoptotic cells (flow cytometry),3T3L1 preadipocytes,significantly increased
same,Protein level of p21^CIP1/WAF1,[2],increases
same,Protein level of p27^KIP1,[2],increases
same,pCdk2,[2],decreased
same,Effect on MCF10A non-tumorigenic cell line,MCF10A,not affected
